In patent US9133160B2, “Substituted benzimidazole and imidazopyridine compounds useful as CYP17 modulators” (Bristol-Meyers Squibb Company, priority 2010, dated 2015) one finds IC50 and testosterone levels data, which are given here for 15 compounds.

Sequence of Human CYP17 (P05093 whole entry): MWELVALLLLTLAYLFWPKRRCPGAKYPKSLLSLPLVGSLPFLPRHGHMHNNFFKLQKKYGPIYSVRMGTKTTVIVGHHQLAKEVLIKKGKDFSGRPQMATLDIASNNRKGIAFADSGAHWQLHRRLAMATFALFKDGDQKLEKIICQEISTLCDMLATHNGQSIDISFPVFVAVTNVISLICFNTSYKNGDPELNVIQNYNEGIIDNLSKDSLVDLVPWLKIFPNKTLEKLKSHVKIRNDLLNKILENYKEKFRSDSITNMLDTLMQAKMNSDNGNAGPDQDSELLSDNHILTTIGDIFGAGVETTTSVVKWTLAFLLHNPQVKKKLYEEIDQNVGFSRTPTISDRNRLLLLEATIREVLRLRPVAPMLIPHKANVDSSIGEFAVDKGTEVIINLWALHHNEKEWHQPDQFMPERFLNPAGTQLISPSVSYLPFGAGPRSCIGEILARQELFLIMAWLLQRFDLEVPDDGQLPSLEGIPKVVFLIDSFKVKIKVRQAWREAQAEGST

The first experiment concerns the target Human CYP17 (Homo sapiens (Human), UniProt P05093). The experiment can be described thus: CYP17 Total SPA Assay. The format is biochemical. As to conditions: microsomes from HEK2 cells stably transfected with CYP17; 3H-Pregnenolone 1 uM, NADPH 2 mM; read-out: Human CYP17 Inhibition SPA IC50. How it is done:
CYP17 Total SPA Assay The assays were performed in U-bottom 384-well optiplates. […] The reaction was initiated by the combination of the microsomes and substrates in wells containing compound. The reaction was incubated at room temperature for 45 minutes and terminated by adding 7.5 μl of 0.2N HCl to each well. […] The plate was sealed and incubated overnight with shaking at 4° C. The beads were allowed to settle in the plate for 1 hour and the plate read on a TOPCOUNT® (Perkin-Elmer) plate reader. […] The final concentration of reagents in the assays are NADPH, 2 mM; 3H-Pregnenolone, 1 uM; microsomes, 1.25 ug/ml; […] Dose response curves were generated to determine the concentration required inhibiting 50% of enzyme activity (IC50). Compounds were dissolved at 10 mM in dimethylsulfoxide (DMSO) and evaluated at eleven concentrations, each in duplicate. IC50 values were derived by non-linear regression analysis. Table 3 below lists the IC50 values for the following examples of this invention measured in the Total CYP17 SPA Assay hereinabove.
For the compound `Cc1ccncc1-c1cccc2c1ncn2-c1ncc(F)cc1F` [Example 15, 1-(3,5-difluoropyridin-2-yl)-4-(4-methylpyridin-3-yl)-1H-benzo[d]imidazole], the IC50 stood at 758 nM.

For the compound `Nc1ncncc1-c1cccc2c1ncn2-c1ccc(F)cc1F` [Example 46, 5-(1-(2,4-Difluorophenyl)-1H-benzo[d]imidazol-4-yl)pyrimidin-4-amine], the IC50 stood at 797 nM. For `FC(F)(F)Cn1cnc2c(-c3cnccc3Cl)cccc21` [Example 39, 4-(4-Chloropyridin-3-yl)-1-(2,2,2-trifluoroethyl)-1H-benzo[d]imidazole], the IC50 worked out at 361 nM. For the compound `Cc1ccncc1-c1cccc2c1ncn2-c1ccccn1` [Example 2, 4-(4-methylpyridin-3-yl)-1-(pyridin-2-yl)-1H-benzo[d]imidazole], the IC50 stood at 5.8 nM. Take `CCOc1ncncc1-c1cccc2c1ncn2CC(F)(F)F` [Example 45, 4-(4-Ethoxypyrimidin-5-yl)-1-(2,2,2-trifluoroethyl)-1H-benzo[d]imidazole]: the IC50 stood at 135 nM. As for `Cc1ccncc1-c1cccc2c1ncn2-c1cccnn1` [Example 6, 4-(4-methylpyridin-3-yl)-1-(pyridazin-3-yl)-1H-benzo[d]imidazole], the IC50 was found to be 250 nM. For `Nc1ncncc1-c1cccc2c1ncn2CC(F)(F)F` [Example 44, 5-(1-(2,2,2-Trifluoroethyl)-1H-benzo[d]imidazol-4-yl)pyrimidin-4-amine], the IC50 was determined as 674 nM. For the compound `Cc1ccncc1-c1cccc2c1ncn2C1CC1` [Example 37, 1-Cyclopropyl-4-(4-methylpyridin-3-yl)-1H-benzo[d]imidazole], the IC50 was determined as 396 nM.

Regarding `Cc1ccncc1-c1cccc2c1ncn2-c1cnccn1` [Example 4, 4-(4-methylpyridin-3-yl)-1-(pyrazin-2-yl)-1H-benzo[d]imidazole], the IC50 is 37 nM. Take `Cc1ccncc1-c1cccc2c1ncn2-c1ccncn1` [Example 29, 4-(4-methylpyridin-3-yl)-1-(pyrimidin-4-yl)-1H-benzo[d]imidazole]: the IC50 stood at 656 nM. For `Cc1ccncc1-c1cccc2c1ncn2CC(F)(F)F` [Example 31, 4-(4-Methylpyridin-3-yl)-1-(2,2,2-trifluoroethyl)-1H-benzo[d]imidazole], the IC50 is 12 nM. As for `Cc1ccncc1-c1cccc2c1ncn2-c1ccncc1` [Example 30, 4-(4-methylpyridin-3-yl)-1-(pyridin-4-yl)-1H-benzo[d]imidazole], the IC50 amounted to 405 nM.

With `Cc1ccncc1-c1cccc2c1ncn2-c1cccc(F)n1` [Example 14, 1-(6-fluoropyridin-2-yl)-4-(4-methylpyridin-3-yl)-1H-benzo[d]imidazole], the IC50 came to 11 nM. Turning to `Cc1ccncc1-c1cccc2c1ncn2-c1cccc(C(F)(F)F)n1` [Example 9, 4-(4-methylpyridin-3-yl)-1-(6-(trifluoromethyl)pyridin-2-yl)-1H-benzo[d]imidazole], the IC50 is 40 nM. As to `Cc1ccncc1-c1cccc2c1ncn2CC#N` [Example 35, 2-(4-(4-Methylpyridin-3-yl)-1H-benzo[d]imidazol-1-yl)acetonitrile], the IC50 was 330 nM.

In a further experiment the test system is testosterone levels. Briefly: 1-Day Cyno PK/PD Study (plasma testosterone). The format is in vivo. As to conditions: cynomolgus monkeys, single oral dose 2 mg/kg in 80% PEG-400/water, 24 hour period. Here is the method:
Example 31 was formulated in 80% PEG-400/water at a volume of 1 mL/kg of monkey and administered orally at 2 mg/kg. The formulation was then dosed orally at time=0 hours and blood samples were taken over a 24 hour period to monitor for drug exposure and testosterone levels. (♦) Example 31 (nM); (▴) testosterone (ng/dL).
1-Day Cyno PK/PD Study Protocol
Animals: All procedures involving animals and their care were conducted in conformity with the guidelines that are in compliance with the Bristol-Myers Squibb Institutional Animal Care and Use Committee. Fully mature male cynomolgus monkeys (>4 yrs of age; 5-6 kg) were from an in-house colony. All the monkeys used had chronically implanted femoral vein access ports. For oral studies, all animals were fasted overnight prior to dosing and were fed 4 hr after dosing. […]
Sampling: Blood samples were collected from the femoral port, at 15, 30, and 45 min, and 1, 2, 4, 6, 8, 12, 24, 30, and 48 hr after oral administration. […] The plasma fraction was immediately separated by centrifugation (14,000 rpm, 10 min, 4° C.), frozen on dry ice, and stored at −20° C. until the samples were analyzed.
Analysis of Tested Compound: Plasma samples were thawed and treated with two volumes of acetonitrile containing internal standard. After centrifugation to remove precipitated proteins, an aliquot of supernatant was analyzed by LC/MS/MS. […]
On to `Cc1ccncc1-c1cccc2c1ncn2CC(F)(F)F` [Example 31, 4-(4-Methylpyridin-3-yl)-1-(2,2,2-trifluoroethyl)-1H-benzo[d]imidazole], for which the testosterone levels is on record as roughly 15 ng/dL.

As usually defined, the IC50 is the concentration needed to halve the response being measured.
